Data as given in ChEMBL document CHEMBL5338818, “Discovery of the First Potent, Selective, and In Vivo Efficacious Polo-like Kinase 4 Proteolysis Targeting Chimera Degrader for the Treatment of TRIM37-Amplified Breast Cancer” (J Med Chem, 2023).
Active and inactive are the calls of the source. No cut-off for these calls is given here.

Key:
[1] = biological target: T1, Protein cereblon/Serine/threonine-protein kinase PLK4 (Homo sapiens, UniProt O00444+Q96SW2); experiment: Protac activity at CRBN/PLK4 in human MCF7 cells at 1 uM incubated for 48 hrs by Western blot analysis; assay type: cell-based
Target sequence in this assay (O00444 whole entry, looked up): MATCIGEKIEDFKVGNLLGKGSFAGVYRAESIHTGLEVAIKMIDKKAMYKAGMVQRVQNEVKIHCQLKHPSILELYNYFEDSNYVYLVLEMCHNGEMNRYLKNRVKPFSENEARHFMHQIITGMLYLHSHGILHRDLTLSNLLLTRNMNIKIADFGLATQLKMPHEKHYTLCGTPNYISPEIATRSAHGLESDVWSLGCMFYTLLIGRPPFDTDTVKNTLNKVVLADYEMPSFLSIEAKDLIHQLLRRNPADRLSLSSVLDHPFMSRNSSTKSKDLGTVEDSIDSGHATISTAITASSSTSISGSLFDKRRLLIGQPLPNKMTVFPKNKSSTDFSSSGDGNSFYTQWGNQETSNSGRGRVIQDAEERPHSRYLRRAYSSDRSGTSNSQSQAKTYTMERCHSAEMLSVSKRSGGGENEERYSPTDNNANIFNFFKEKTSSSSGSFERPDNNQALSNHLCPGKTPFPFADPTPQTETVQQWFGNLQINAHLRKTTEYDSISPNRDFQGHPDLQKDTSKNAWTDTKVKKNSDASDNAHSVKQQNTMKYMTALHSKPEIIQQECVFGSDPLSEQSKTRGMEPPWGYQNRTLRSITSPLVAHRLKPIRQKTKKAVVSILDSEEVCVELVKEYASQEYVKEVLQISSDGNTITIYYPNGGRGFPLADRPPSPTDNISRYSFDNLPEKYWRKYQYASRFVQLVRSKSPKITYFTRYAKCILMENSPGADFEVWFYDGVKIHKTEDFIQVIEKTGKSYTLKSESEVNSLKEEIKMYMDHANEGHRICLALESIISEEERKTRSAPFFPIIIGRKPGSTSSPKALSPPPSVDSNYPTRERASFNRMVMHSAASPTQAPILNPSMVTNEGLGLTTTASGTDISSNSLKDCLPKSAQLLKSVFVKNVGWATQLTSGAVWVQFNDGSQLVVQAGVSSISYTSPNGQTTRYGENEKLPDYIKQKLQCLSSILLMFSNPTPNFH
Target sequence in this assay (Q96SW2 whole entry, looked up): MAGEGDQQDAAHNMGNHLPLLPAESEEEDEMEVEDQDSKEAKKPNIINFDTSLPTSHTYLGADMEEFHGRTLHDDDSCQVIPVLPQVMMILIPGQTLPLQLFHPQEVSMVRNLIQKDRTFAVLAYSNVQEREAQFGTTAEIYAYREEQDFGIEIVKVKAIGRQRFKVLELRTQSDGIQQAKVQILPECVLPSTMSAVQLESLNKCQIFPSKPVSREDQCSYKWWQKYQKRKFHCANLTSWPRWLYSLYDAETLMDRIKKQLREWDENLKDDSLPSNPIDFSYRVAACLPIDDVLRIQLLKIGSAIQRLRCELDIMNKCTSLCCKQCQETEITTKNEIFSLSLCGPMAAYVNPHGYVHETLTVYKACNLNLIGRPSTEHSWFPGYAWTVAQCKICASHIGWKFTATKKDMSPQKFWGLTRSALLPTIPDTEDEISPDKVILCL

[2] = biological target: T1, Protein cereblon/Serine/threonine-protein kinase PLK4; experiment: Protac activity at CRBN/PLK4 in human MCF7 cells by Western blot analysis; assay type: cell-based
Target sequence in this assay (O00444 whole entry): as the sequence (O00444 whole entry, looked up) above
Target sequence in this assay (Q96SW2 whole entry): as the sequence (Q96SW2 whole entry, looked up) above

MCF7 = experiment: Inhibition of human MCF7 cells migration at 0.1 to 1 uM by inverted microscopic analysis; assay type: functional, cell-based; details: dose 0.1-1 µM, time 48.0 hrs, TDE = time-dependent effect
[3] = Stability in human plasma assessed as compound remaining at 100 uM after 10 mins by LC-MS/MS analysis (reference value: 100%); assay type: ADME, cell-free; details: read-out: Stability
[4] = Stability in human plasma assessed as compound remaining at 100 uM after 60 mins by LC-MS/MS analysis (reference value: 100%); assay type: ADME, cell-free; details: read-out: Stability
[5] = Stability in human plasma assessed as compound remaining at 100 uM after 120 mins by LC-MS/MS analysis (reference value: 100%); assay type: ADME, cell-free; details: read-out: Stability
[6] = Stability in human plasma assessed as half life at 100 uM after 120 mins by LC-MS/MS analysis; assay type: ADME, cell-free
[7] = Metabolic stability in rat liver microsomes assessed as half life at 100 uM incubated for 60 mins in presence of NADPH by LC-MS/MS analysis; assay type: ADME, Microsome
[8] = Metabolic stability in human liver microsomes assessed as intrinsic clearance at 100 uM incubated for 60 mins in presence of NADPH by LC-MS/MS analysis; assay type: ADME, Microsome; details: read-out: CLH
[9] = Metabolic stability in mouse liver microsomes assessed as intrinsic clearance at 100 uM incubated for 60 mins in presence of NADPH by LC-MS/MS analysis; assay type: ADME, Microsome; details: read-out: CLH
[10] = Metabolic stability in human liver microsomes assessed as compound remaining at 100 uM incubated for 60 mins in presence of NADPH by LC-MS/MS analysis; assay type: ADME, Microsome; details: read-out: Stability
CYP2C19 = CYP2C19 (Homo sapiens, UniProt P33261); experiment: Inhibition of CYP2C19 in human liver microsomes at 10 uM using (+)-3-benzylnirvanol as substrate preincubated for 10 mins followed by NADPH regenerating system addition and measured after 15 mins by LC-MS/MS analysis relative to control; assay type: ADME, Microsome; details: probe (+)-3-benzylnirvanol (named as substrate in the text), time 25 min
CYP3A4 = CYP3A4 (Homo sapiens, UniProt P08684); experiment: Inhibition of CYP3A4 in human liver microsomes at 10 uM using ketoconazole as substrate preincubated for 10 mins followed by NADPH regenerating system addition and measured after 15 mins by LC-MS/MS analysis relative to control; assay type: ADME, Microsome; details: time 25 min
[11] = Observed AUC infinity in ICR mouse at 2 mg/kg, iv measured upto 24 hrs by LC-M/MS analysis; assay type: ADME, organism-based; design: time < 24 hrs, dose 2 mg/kg, route iv; details: in vivo
[12] = Half life in ICR mouse at 20 mg/kg, ip measured upto 24 hrs by LC-M/MS analysis; assay type: ADME, organism-based; details: in vivo
[13] = Observed clearance in ICR mouse at 2 mg/kg, iv measured upto 24 hrs by LC-M/MS analysis; assay type: ADME, organism-based; details: in vivo
[14] = Apparent permeability across apical to basolateral side in human Caco-2 cells at 2 uM incubated for 2 hrs by LC-MS/MS analysis; assay type: ADME, cell-based
[15] = Toxicity in nu/nu mouse xenografted with human MCF7 cells assessed as effect on liver at 20 mg/kg, ip administered once every other day for 21 days by HE staining based analysis; assay type: organism-based; details: in vivo, 504 h, time 21 day
Mus musculus = experiment: In vivo induction of PLK degradation in human MCF7 cells xenografted in nu/nu mouse at 20 mg/kg, ip administered once every other day for 21 days by western blotting analysis; assay type: functional, organism-based; details: time 21.0 day

Chain of CYP2C19 (P33261 whole entry): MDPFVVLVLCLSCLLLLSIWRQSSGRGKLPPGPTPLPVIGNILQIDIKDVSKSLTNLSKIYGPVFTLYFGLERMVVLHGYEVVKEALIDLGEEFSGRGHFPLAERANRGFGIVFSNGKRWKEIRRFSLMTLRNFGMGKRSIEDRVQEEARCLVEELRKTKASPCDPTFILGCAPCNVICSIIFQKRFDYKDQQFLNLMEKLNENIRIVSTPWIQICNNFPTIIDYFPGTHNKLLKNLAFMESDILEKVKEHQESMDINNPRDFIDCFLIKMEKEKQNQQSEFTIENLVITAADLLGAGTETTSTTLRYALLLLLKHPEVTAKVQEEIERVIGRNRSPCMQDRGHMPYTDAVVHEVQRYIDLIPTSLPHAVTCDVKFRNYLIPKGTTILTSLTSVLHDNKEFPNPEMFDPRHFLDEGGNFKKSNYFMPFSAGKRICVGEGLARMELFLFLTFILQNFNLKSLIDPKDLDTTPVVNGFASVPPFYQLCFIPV
Chain of CYP3A4 (P08684 whole entry): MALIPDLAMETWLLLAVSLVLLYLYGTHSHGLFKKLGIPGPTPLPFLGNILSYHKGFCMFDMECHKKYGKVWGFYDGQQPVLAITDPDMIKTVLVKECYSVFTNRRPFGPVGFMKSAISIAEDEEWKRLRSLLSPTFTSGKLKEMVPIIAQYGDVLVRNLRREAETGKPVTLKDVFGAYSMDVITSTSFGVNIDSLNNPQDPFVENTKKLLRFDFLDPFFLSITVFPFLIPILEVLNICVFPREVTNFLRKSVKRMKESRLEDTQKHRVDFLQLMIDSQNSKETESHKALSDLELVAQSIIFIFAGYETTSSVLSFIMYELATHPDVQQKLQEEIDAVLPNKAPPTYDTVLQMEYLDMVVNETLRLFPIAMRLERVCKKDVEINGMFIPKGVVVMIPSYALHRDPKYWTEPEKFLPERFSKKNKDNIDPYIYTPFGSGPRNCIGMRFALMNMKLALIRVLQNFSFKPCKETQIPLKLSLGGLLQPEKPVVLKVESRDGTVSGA

Activity [1]: 73.4%
DC50 [2]: 19.5 nM
remaining at 10 min, 100 µM [3]: 93.9%
remaining at 1 h, 100 µM [4]: 83.6%
remaining at 2 h, 100 µM [5]: 69.9%
half-life at 100 µM [6]: > 2 h
half-life at 100 µM [7]: 1.11 h
microsomal CLint at 100 µM [8]: 21.7 µL/min/mg
microsomal CLint at 100 µM [9]: 17.1 µL/min/mg
remaining at 1 h, 100 µM [10]: 51.7%
inhibition at 0.25 h, 10 µM (CYP2C19): 23.4%
inhibition at 0.25 h, 10 µM (CYP3A4): 20.4%
AUC(0-inf) [11]: 956 ng·h/mL
half-life [12]: 4.66 h
clearance [13]: 34.9 mL/min/kg
Papp A→B at 2 h, 2 µM [14]: 0.48 ×10⁻⁶ cm/s
Structure (SMILES): Cc1cc(Nc2nc(NCc3ccc(F)cc3F)nc3c2cnn3C2CCN(C(=O)C3CCN(c4ccc5c(c4)C(=O)N(C4CCC(=O)NC4=O)C5=O)CC3)CC2)n[nH]1 (centres undefined)
inhibition (MCF7): Tde
Activity [15]: Non-Toxic
inhibition (Mus musculus): Active
